{
  "source": "patent US20220264913A1",
  "about": "“MULTIFUNCTIONAL EXTRACTS OF SUGARCANE STRAW OR BAGASSE AND USES THEREOF” (UNIVERSIDADE CATÓLICA PORTUGUESA - UCP, priority 2019, published 2022)",
  "type_in_all_cases": "cell-based",
  "details_in_all_cases": "extracts 50% ethanol, ND = inhibition not detected",
  "key": {"MSSA": {"system": "MSSA", "test": "MIC/MBC determination, MSSA", "method": "(§1) The antimicrobial activity of the extracts was evaluated by measuring the minimum inhibitory concentration (MIC) and the minimum bactericidal concentration (MBC) of the extracts using the methods of the clinical and laboratory standards institute for aerobic (M07-A9) and anaerobic bacteria (M11-A8). From a previously filtered 3% stock solution a series of extract dilutions were prepared (2%, 1.5%, 1%, 0.75%, 0.5%, 0.25%, 0.125%, and 0.0625% (w/v)). A commonly used preservative, 2-phenoxyethanol was tested under the same conditions as a positive control.\n(§2) MHB growth media was used for aerobic microorganisms and Wilkins Chalgren Broth (WCB) was used for anaerobic microorganisms. The microorganisms were inoculated at 2% (v/v) from an inoculum with 0.5 McFarland standard (ca. 10^8 CFU/mL) and then adjusted in order to obtain a final inoculum of 10^5 CFU/mL in the testing solutions. […] The OD of each well (experimental and control) was measured each hour at 660 nm. […] Afterwards, the concentrations for which no growth was detected were plated in MHA and Wilkins Chalgren Agar (WCA) accordingly, in order to verify the MBC. MBC and MIC were determined by the analysis of maximum absorbance registered, delay of the exponential phase entry, and the calculation of the specific growth rate. […]"}, "P. aeruginosa": {"system": "P. aeruginosa", "test": "MIC/MBC determination, P. aeruginosa", "method": "as §1, §2"}, "C. albicans": {"system": "C. albicans", "test": "MIC/MBC determination, C. albicans", "method": "as §1, §2"}, "E. coli": {"system": "E. coli", "test": "MIC/MBC determination, E. coli", "method": "as §1, §2"}},
  "data": [
    {"smiles": "OCCOc1ccccc1", "note": "[Phenoxyethanol, 2-phenoxyethanol]", "values": [
      {"measurement": "MBC", "setting": "MSSA", "result": 0.3, "unit": "%"},
      {"measurement": "MBC", "setting": "P. aeruginosa", "result": 0.3, "unit": "%"},
      {"measurement": "MBC", "setting": "C. albicans", "result": 3, "unit": "%"},
      {"measurement": "MBC", "setting": "E. coli", "result": 3, "unit": "%"}
    ]}
  ]
}
